pIC50: −log10 of the molar value. “Also recorded” adds a separate entry of the source.
How the values were obtained:
Type in all cases: cell-based
[1] = test system: human prostate stroma cells; test: Inhibition by an EDG-2 antagonist of LPA-dependent proliferation of human prostate stroma cells (BrdU uptake); conditions: LPA 1 μM; test compound 1 nM to 10 μM; 24 hours; FIG. 2-4
Experimental: To an MEM-α medium containing 10% FBS (fetal bovine serum), gentamicin (50 μg/ml), amphortercin B (50 ng/mL) and human bFGF and human insulin)(GIBCO Inc.) was added PrSC 5685 in a concentration of 1×10^4 cells/well in a 96-well plate and the mixture was cultured for 24 hours. Afterwards, it was washed with Hanks solution twice and the medium was exchanged with a serum-free medium (MEM-α containing gentamicin (50 μg/ml) and amphotercin B (50 ng/ml)) and cultured for another 24 hours. Thereto was added LPA (final concentration: 1 nM-10 μM) and at the same time was added BrdU and the mixture was cultured for 24 hours. The same amount of physiological saline was added in place of LPA as a control.
Uptaking of BrdU was measured by using cell proliferation ELISA kit (Amersham Inc.). Specifically, the cells were treated with BrdU and the cultured serum was discarded and to each well was added a cell anchorage/DNA denaturation solution (150 μl) and the mixture was allowed to stand for 30 minutes. The cell anchorage/DNA denaturation solution was removed and to the mixture was added Blocking buffer (150 μl) and the mixture was allowed to stand for another 30 minutes. Next the Blocking buffer was removed and thereto was added anti-BrdU antibody solution (100 μL) labeled with peroxidase and the mixture was allowed to stand for 30 minutes. Next the antibody solution was removed and the mixture was washed with Wash buffer (PBS(−); 150 μl) three times, moisture was removed enough by tapping and thereto was added a solution of a reaction substance (3,3′,5,5′,-tetramethylbenzidine, TMB 15% solution in DMSO; 100 μL). Thereto was added 2N solution of sulfuric acid (25 μL) and the absorbance was measured at 450 nm by microplate reader SPECTRAMAXPRO.
Human-prostate stroma cells were cultured by the method described in example 2, just before adding LPA the test compound (final concentration: 1 nM to 10 μM) were added. […] After adding LPA was added BrdU and it was cultured for another 24 hours and the uptaking activity of BrdU was measured.

[2] = test system: human airway smooth muscle cells; test: Inhibition by an EDG-2 antagonist of LPA-dependent proliferation of human airway smooth muscle cells (BrdU uptake); conditions: LPA 3 μM; test compound 1 nM-10 μM; 6 hours; FIG. 6-7
Experimental: BSMC was sowed to an MEM-α medium (GIBCO) containing 10% FBS (fetal bovine serum), gentamicin (50 μg/ml), amfortercin B (50 ng/ml), human bFGF and human insulin in a concentration of 1×10^4 cells/well in a 96-well plate and the mixture was cultured for 24 hours. Afterwards, it was washed with Hanks solution twice, and the medium was exchanged with a serum-free medium (an MEM-α containing gentamicin (50 μg/ml) and amphortecin B (50 ng/ml)) and the mixture was cultured for another 24 hours. Thereto was added LPA (final concentration: 3 nM-10 μM) and simultaneously was added BrdU and the mixture was cultured for another 6 hours. The same amount of physiological saline was added as a control in place of LPA.
Uptaking of BrdU was measured by using cell proliferation ELISA kit (Amersham Inc.). Specifically, the cells were treated with BrdU and the cultured serum was discarded and to each well was added a cell anchorage/DNA denaturation solution (150 μl) and the mixture was allowed to stand for 30 minutes. […] Thereto was added 2N solution of sulfuric acid (25 μL) and the absorbance was measured at 450 nm by microplate reader SPECTRAMAXPRO.
By the method shown in example 4 BSMC was cultured and the test compound (final concentration: 1 nM-10 μM) was added just before adding LPA. […] After adding LPA, BrdU was added and it was cultured for 6 hours and the uptaking activity of BrdU was measured.

[3] = test system: human synovial cells (HFLS); test: Inhibition by an EDG-2 antagonist of LPA-dependent proliferation of human synovial cells (BrdU uptake); conditions: LPA 3 μM, compound 0.001 μM-10 μM, FIG. 11-12
Experimental: Proliferating activity of human synovial cells by LPA was measured by BrdU uptaking activity of the cells (HFLS CELL APPLICATION Inc.). In a medium containing serum (Synoviocyte Basal Medium/Synoviocyte Growth Supplement) the cells were suspended and they were sowed in a collagen-coated 96-well plate in a concentration of 1×10^4 cells/well and 24 hours after it was washed with Hanks solution (150 μl) twice and the medium was exchanged with serum-free medium (Synoviocyte Basal Medium) in a volume of 100 μL/well and it was cultured for 24 hours. The compound (b) or compound (c) (each in a concentration of 0.001 μM-10 μM) was simultaneously added with LPA (in a concentration of 3 μM) and 18 hours after, thereto was added BrdU and the uptaking of BrdU was measured.

human EDG-2 = biological target: T1, human EDG-2 (Homo sapiens, UniProt Q92633); test: Evaluation of EDG-2 antagonistic activity by monitoring the change of intracellular calcium ion concentration; conditions: CHO cells overexpressing human EDG-2; inhibition of intracellular calcium increase by LPA (100 nM); Fura2
T1 construct: expressed in transfected cells; host or cells: Chinese hamster ovary (CHO) cells
T1 sequence (Q92633 whole entry): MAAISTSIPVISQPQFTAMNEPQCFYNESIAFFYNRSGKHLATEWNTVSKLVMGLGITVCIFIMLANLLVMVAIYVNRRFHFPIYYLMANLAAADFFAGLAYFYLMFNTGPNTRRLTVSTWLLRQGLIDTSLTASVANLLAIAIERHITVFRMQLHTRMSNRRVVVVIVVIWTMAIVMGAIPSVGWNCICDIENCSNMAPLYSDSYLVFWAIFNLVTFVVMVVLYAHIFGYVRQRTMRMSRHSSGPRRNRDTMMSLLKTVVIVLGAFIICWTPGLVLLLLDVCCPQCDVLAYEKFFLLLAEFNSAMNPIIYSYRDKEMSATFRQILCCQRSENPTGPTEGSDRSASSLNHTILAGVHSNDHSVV
Experimental: Chinese hamster ovary (CHO) cells which overexpressed human EDG-2 gene were cultured in Ham's F12 medium (GIBCO BRL) containing 10% FBS (fetal bovine serum), penicillin/streptomycin and blasticidin (5 μg/ml). Thus cultured cells were incubated in Fura2 (5 μM)-AM solution [Ham's F12 medium containing FBS (10%), HEPES buffer (20 mM, pH 7.4) and probenecid (2.5 mM)]. Next, it was washed with Hanks solution containing HEPES buffer (20 mM, pH 7.4) and probenecid (2.5 mM) once, and immersed into the Hanks solution. Plates were set in fluorescent drug screening system and intracellular calcium ion concentration was measured for 30 seconds with no stimulation. Five minutes after adding thereto a compound to be tested (final concentration: 1 nM to 10 μM, in dimethylsulfoxide (DMSO) solution), the increase of intracellular calcium ion concentrations before and after the addition of LPA (excitation wave length: […]; fluorescent wave length: 500 nm) were measured every 3 seconds. 1-oleoyl (18:1)-LPA (Sigma) or 1-linolenoyl (18:3)-LPA was used as LPA. 1-linolenoyl (18:3)-LPA was synthesized and purified by either of the following two methods. […]

[4] = test system: mouse precursor fat cells (3T3-L1); test: Inhibition by an EDG-2 antagonist of LPA-dependent proliferation of mouse precursor fat cells (BrdU uptake); conditions: compound 0.001 μM-10 μM, FIG. 9-10
Experimental: Proliferating activity of mouse precursor fat cells by LPA was measured by BrdU uptaking activity of the cells (3T3-L1). In a medium containing serum (DMEM/10% FBS (50 μg/mL); gentamicin (50 ng/mL); amphotericin B) the cells were suspended and the suspension was sowed in a concentration of 1×10^4 cells/well in a 96-well plate and it was cultured for 24 hours, and then it was washed with Hanks solution (150 μL) twice and the medium was exchanged with serum-free medium (DMEM (50 μg/mL); gentamicin (50 ng/mL); amphotericin B) and it was cultured for another 24 hours. Thereto was added the compound (b) or compound (c) in a final concentration of 0.001 μM-10 μM and 20 hours later thereto was added BrdU and 24 hours later, the uptaking of BrdU was measured.

Compound | inhibition of proliferation of human prostate stroma cells by LPA stimulation (BrdU uptaking activity) [1] | inhibition of proliferation of human airway smooth muscle cells by LPA stimulation (BrdU uptaking activity) [2] | inhibition of proliferation of human synovial cells by stimulation of LPA (BrdU uptaking activity) [3] | pIC50 (human EDG-2) | inhibition of proliferation of mouse precursor fat cells by LPA stimulation (BrdU uptaking activity) [4]
COc1ccc(OC)c(CCN(CCC(=O)O)C(=O)c2ccccc2-c2ccccc2C(=O)NCc2cccnc2)c1.Cl [compound (a), 3-(N-((2-(2-((pyridin-3-ylmethylamino)carbonyl)phenyl)phenyl)carbonyl)-N-(2-(2,5-dimethoxyphenyl)ethyl)amino)propanoic acid hydrochloride] | suppresses the proliferation effect of normal human prostate stroma cells by LPA, depending on the concentration | suppresses the proliferation effect of normal human airway smooth muscle cells by LPA, depending on the concentration | inhibited the proliferation of human synovial cells by stimulation of LPA |  | 
COC(=O)CCSCc1ccc(-c2onc(C)c2NC(=O)OC(C)c2ccccc2Cl)cc1 (stereo not drawn) [compound (b), methyl 3-({4-[4-({[1-(2-chlorophenyl)ethoxy]carbonyl}amino)-3-methyl-5-isoxazolyl]benzyl}sulfanyl)propanoate, reference compound] | suppresses the proliferation effect of normal human prostate stroma cells by LPA, depending on the concentration | inhibits the proliferation effect of normal human airway smooth muscle cells induced by LPA depending on the concentration | inhibits the proliferation effect of normal human precursor fat cells depending on the concentration; also recorded: inhibited the proliferation of human synovial cells by stimulation of LPA | 5.82 | inhibits the proliferation effect of normal human precursor fat cells induced by LPA depending on the concentration; also recorded: inhibited the proliferation of mouse precursor fat cells by LPA stimulation depending on the concentration
COc1cc(C(=O)N(CCCc2ccccc2)Cc2ccc(-c3ccccc3CC(=O)O)cc2)cc(OC)c1OC [compound (c), (4′-{[(3-phenylpropyl)(3,4,5-trimethoxybenzoyl)amino]methyl}-2-biphenylyl)acetic acid] | suppresses the proliferation effect of normal human prostate stroma cells by LPA, depending on the concentration |  | inhibits the proliferation effect of normal human synovial membrane depending on the concentration | 6.72 | inhibits the proliferation effect of normal human precursor fat cells induced by LPA depending on the concentration; also recorded: inhibited the proliferation of mouse precursor fat cells by LPA stimulation depending on the concentration

— patent US7300917B2, “Remedy for chronic disease” (Ono Pharmaceuticals Co., Ltd., priority 2002, dated 2007)
